Here are results for 3 compounds from patent publication US9468632B2, “Methods and compositions for targeting cancer stem cells” (The Regents of the University of Michigan, priority 2012, dated 2016).

For one assay, the target named is T1, ALDH1A1 (WT) (Homo sapiens, UniProt P00352).
T1 sequence (P00352 1-501): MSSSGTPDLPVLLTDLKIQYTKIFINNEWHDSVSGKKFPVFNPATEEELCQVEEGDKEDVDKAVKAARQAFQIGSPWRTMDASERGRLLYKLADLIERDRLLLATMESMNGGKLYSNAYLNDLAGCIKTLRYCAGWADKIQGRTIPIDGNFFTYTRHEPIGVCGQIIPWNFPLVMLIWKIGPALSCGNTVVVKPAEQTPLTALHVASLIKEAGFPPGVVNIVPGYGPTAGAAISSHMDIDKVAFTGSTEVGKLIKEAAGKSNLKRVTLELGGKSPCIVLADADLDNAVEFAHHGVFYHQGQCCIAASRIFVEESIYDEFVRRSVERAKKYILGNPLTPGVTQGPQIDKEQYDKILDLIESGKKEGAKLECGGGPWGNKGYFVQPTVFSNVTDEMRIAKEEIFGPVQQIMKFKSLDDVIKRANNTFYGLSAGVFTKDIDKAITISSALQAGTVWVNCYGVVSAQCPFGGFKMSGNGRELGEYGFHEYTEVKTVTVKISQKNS
The assay is described as follows: In vitro enzymatic inhibition assay, ALDH1A1 (WT). Type of assay: biochemical.

The target in the next assay is T2, ALDH1A2 (Homo sapiens, UniProt O94788).
T2 sequence (O94788 1-518): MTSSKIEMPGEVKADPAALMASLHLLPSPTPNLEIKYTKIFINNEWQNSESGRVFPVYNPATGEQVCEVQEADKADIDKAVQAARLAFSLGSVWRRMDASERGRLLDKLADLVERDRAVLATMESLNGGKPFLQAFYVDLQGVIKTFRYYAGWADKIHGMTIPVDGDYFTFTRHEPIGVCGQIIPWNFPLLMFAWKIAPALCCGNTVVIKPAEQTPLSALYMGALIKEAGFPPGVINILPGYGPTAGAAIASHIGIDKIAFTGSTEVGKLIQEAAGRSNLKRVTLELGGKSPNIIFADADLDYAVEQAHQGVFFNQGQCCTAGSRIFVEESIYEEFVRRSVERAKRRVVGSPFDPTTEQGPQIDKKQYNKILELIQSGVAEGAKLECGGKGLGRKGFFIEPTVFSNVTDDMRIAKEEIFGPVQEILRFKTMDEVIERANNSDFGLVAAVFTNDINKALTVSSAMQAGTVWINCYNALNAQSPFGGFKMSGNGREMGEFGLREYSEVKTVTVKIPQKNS
The assay is described as follows: In vitro enzymatic inhibition assay, ALDH1A2. Type of assay: biochemical.

The target in another assay is T3, ALDH1A3 (Homo sapiens, UniProt P47895).
T3 sequence (P47895 1-512): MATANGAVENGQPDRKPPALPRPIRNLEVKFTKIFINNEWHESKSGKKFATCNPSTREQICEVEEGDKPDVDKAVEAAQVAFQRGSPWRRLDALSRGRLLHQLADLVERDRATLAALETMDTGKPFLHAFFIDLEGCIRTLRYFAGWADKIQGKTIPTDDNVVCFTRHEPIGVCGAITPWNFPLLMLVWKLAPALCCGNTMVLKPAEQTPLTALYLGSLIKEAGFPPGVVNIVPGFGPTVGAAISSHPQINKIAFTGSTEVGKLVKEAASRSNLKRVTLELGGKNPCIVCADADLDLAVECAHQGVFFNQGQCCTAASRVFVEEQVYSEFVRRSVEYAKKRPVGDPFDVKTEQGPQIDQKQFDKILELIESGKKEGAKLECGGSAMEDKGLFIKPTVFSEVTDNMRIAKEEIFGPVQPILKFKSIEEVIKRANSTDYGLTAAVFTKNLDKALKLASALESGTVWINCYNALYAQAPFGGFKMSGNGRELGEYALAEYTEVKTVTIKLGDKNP
The assay is described as follows: In vitro enzymatic inhibition assay, ALDH1A3. Type of assay: biochemical. To be noted: 2 min incub.

The target in the next assay is T4, ALDH1A1 (S121) (Homo sapiens, UniProt P00352, N121S).
T4 sequence (P00352 1-501 N121S): T1 sequence (P00352 1-501) with N121S
The assay is described as follows: In vitro enzymatic inhibition assay, ALDH1A1 (S121). Type of assay: biochemical.

The target in another assay is ALDH2 (Homo sapiens, UniProt P05091). The assay is described as follows: In vitro enzymatic inhibition assay, ALDH2. Type of assay: biochemical.
ALDH2, sequence (P05091 18-517): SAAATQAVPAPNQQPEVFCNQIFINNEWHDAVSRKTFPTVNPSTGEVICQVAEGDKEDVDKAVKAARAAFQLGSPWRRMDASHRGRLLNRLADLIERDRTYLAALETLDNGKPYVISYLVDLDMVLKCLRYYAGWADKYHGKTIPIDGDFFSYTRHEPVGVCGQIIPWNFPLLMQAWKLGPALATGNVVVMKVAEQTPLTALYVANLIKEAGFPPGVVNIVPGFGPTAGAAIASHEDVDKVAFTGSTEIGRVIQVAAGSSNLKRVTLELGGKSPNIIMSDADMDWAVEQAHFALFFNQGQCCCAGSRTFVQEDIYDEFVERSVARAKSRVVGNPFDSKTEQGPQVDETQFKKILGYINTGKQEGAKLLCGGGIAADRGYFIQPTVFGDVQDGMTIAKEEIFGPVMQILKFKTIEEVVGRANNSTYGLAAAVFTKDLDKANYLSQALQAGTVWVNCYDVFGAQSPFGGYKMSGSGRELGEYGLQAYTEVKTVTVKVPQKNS
The next assay deals with ALDH− cells. The assay is described as follows: Time to recovery after treatment, isolated ALDH− cells. Type of assay: cell-based. The text has this: (§1) A. Time to recovery for SKOV3 ovarian cancer cells treated with cisplatin or combined cisplatin and ALDH inhibitor. […] Cisplatin treated ALDH+ cells required approximately 6 days to recover whereas cisplatin treated ALDH− cells required 14 days to recover.

In assay [1] the test system is primary human tumor xenografts. The assay is described as follows: Primary human tumor xenografts from chemotherapy refractory ovarian cancer. To be noted: treatment started at ˜500 mm^3. Format: in vivo, mice. The text has this: In order to confirm in vivo activity against primary ovarian cancers, primary human tumor xenografts were generated from a patient with chemotherapy refractory ovarian cancer. Xenografts were allowed to grow until they reached ˜500 mm^3, and then treatment with either vehicle, cisplatin or cisplatin and UM 673 was initiated. […] After discontinuation of therapy, tumor regrowth was observed after approximately 4 weeks (FIG. 5D).
A general note: In xenograft studies the graft and the host belong to different species.

The next assay has as its system ALDH+ cells. The assay is described as follows: Time to recovery after treatment, isolated ALDH+ cells. Type of assay: cell-based.
Source text: as §1

The test system of assay [2] is A2780 tumor cell xenografts. The assay is described as follows: A2780 tumor cell xenografts, tumor growth. Type of assay: in vivo, mice. To be noted: unsorted A2780 cells, treatment from day 3. The procedure:
6-8 week old nude female mice were purchased from Charles River Laboratories. All xenograft experiments were performed with approval of the University Committee on Use and Care of Animals of the University of Michigan. To generate tumors, 7.5×10^4 unsorted A2780 cells or 7500 CD133+ sorted A2780 cells were combined with 100 μl of DPBS and 100 μl of Matrigel (BD Biosciences), and then implanted subcutaneously into bilateral axillae of each mouse. 3 days after inoculation with tumors, mice were given an intra-peritoneal injection of (1) control DMSO 40 μl, (2) Cisplatin 250 μg/ml, (3) UM #673 10 μM, or (4) Cisplatin plus UM #673 (n=9 mice per treatment group). Tumor growth was measured using calipers, and tumor volume was calculated based on the modified ellipsoid formula (L×W×W/2), where L is the length and W is the width of the tumor. The mice were euthanized when tumors reached 1.5 to 2 cm^3 and animal safety euthanasia guidelines were met. Intraperitoneal tumors were generated using 5×10^6 OVCAR8 in […] of PBS and injected I.P. 3 days after inoculation, mice were given intra-peritoneal injection of Cisplatin or Cisplatin plus UM #673.
The impact of UM673 as a single agent was evaluated. NOD/SCID mice were inoculated with 1×10^5 unsorted A2780 cells and treatment was initiated three days after tumor inoculation with either vehicle control or UM #673. […] This is consistent with other studies of CSC targeting agents.
The experiments were repeated in combination with cisplatin. In addition, xenografts from both whole cell line and FACS isolated CD133+ cells were treated.

The subject of assay [3] is in vitro treated, PI-/Annexin-FACS isolated live cells. The assay is described as follows: Tumor initiation capacity of in vitro treated live cells injected into mice. Type of assay: in vivo. As for the experimental part:
An important functional aspect of a cancer stem cell is the ability to initiate tumors with limited cell numbers. In order to determine if UM673 could impact tumor initiation, cells were treated in vitro with a single dose of UM673 alone or in combination with cisplatin. Cells were allowed to recover for three days and then PI(−)/Annexin(−) live cells were faxed isolated and injected into mice. 200, 1000, or 5000 cells from each treatment group (n=4-10/group) were injected.

The IC50 is the point on the concentration scale where inhibition reaches its midpoint.

SMILES strings stand for the structures. Residue numbers refer to the chain shown, from its start. A value given as a limit tells only on which side of the number the result lay.

For the compound `Cc1cc(N2Cc3ccccc3C2)ccc1C=O` [673A], the IC50 turned out to be 216 ± 22 nM on ALDH1A1 (WT); 211 ± 36 nM against ALDH1A2; 170 ± 28 nM against ALDH1A3; 230 ± 10 nM against ALDH1A1 (S121); 1680 ± 190 nM against ALDH2.
The matching figures for `O=Cc1ccc(N2Cc3ccccc3C2)cc1` [673B]: 450 ± 35 nM, 800 ± 147 nM, 1340 ± 480 nM, 1240 ± 118 nM and greater than 20000 nM.
In the case of `N.N.[Cl][Pt][Cl]` [Cisplatin, reference compound], the time to recover in the assay with ALDH− cells worked out at 14 days. Further, the tumor growth result is recorded as “no effect on tumor growth” in assay [1] and “modest restrictions in tumor growth” in assay [2]. Besides, in the assay with ALDH+ cells, the “time to recover back to initial cell levels” value was “approximately 6 days”. In addition, the “tumor initiation (tumors/injections)” value is 1/4 in assay [3] (200 cells injected), 4/4 in assay [3] (1000 cells injected) and 8/8 in assay [3] (5000 cells injected). Besides, the “effect on tumor initiation capacity” value in assay [3] (compared to untreated controls) is “neither cisplatin or UM673 affected tumor initiation”.
